According to patent US4820718A, “N-alkyl-(2- or 5-substituted-2-methoxycarbonyl aminoalkyl furanyl)-substituted cyclimmonium salts and use thereof in PAF inhibition” (Sandoz Pharm. Corp., priority 1987, dated 1989):

Experiments:
[1] = test system: PAF-induced human platelet aggregation; assay: Platelet Aggregation Inhibition Assay (PAIA test), PAF-induced human platelet aggregation in vitro; type: cell-based; conditions: human platelet rich plasma
Description: All of the compounds of formula I are useful as platelet activating factor inhibitors as indicated by their ability to inhibit platelet activating factor (PAF)-induced human platelet aggregation in vitro according to the Platelet Aggregation Inhibition Assay test (PAIA test) as follows: Human subjects are kept aspirin free for one week and fasted overnight. Platelet rich plasma (PRP) is prepared by centrifugation (200×g.) of freshly drawn blood anti-coagulated with 0.38% sodium citrate (final concentration). Platelet count is adjusted to 250,000 per μl using platelet poor plasma (PPP) obtained by a second centrifugation (700×g.) of the blood sample. An aliquot (0.38 ml) of the PRP is dispensed into cuvettes and maintained at room temperature (22° C.) until used (but for not more than two hours). […] All aggregations are allowed to proceed for 6 minutes for the addition of the inducing agent. The aggregation response is quantitated by determining the area under the curve (AUC). The AUC calculated for the inducing agent alone is considered to be one hundred percent. The potential percent inhibition of the aggregation response is determined by dividing the AUC generated in the presence of the compound by the AUC of the inducing agent alone, multiplying by 100 and then subtracting from 100.

[2] = molecular target: T1, Human Platelet PAF Receptor (Homo sapiens, UniProt P25105); assay: Human Platelet PAF Receptor Assay (Test A), inhibition of specific binding of [3H]-PAF to platelets; conditions: [3H]-PAF specific binding
T1 construct: 500 μl of the above-described platelets; endogenous in cells; host or cells: washed human platelets from blood of healthy donors
T1 sequence (P25105 whole entry): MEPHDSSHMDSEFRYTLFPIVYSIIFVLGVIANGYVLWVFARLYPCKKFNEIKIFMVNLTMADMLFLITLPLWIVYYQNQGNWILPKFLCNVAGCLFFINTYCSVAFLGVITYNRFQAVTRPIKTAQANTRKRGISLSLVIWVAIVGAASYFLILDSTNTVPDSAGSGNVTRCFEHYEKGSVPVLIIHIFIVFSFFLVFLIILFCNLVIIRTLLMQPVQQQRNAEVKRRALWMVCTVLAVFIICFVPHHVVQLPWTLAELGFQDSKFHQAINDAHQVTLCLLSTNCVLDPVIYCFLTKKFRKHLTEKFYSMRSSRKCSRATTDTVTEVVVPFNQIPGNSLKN
Description: Platelet rich plasma (PRP) is prepared by centrifugation (250×g) of the blood for 20 minutes at room temperature. […] The platelets are resuspended at […] in TT/BSA containing 1.4 mM CaCl2.2H2 O and 0.7 mM MgCl2.6H2 O. All of the tests are conducted in duplicate and each of the test compounds is evaluated at concentrations of 100, 50, 1 and 0.1 μM. For each determination, the following solutions are mixed: 500 μl of the above-described platelets; 10 μl of [^3 H]-PAF (40,000 counts per minute (cpm) to a final concentration of […]); and either 10 μl of the test compound at 50× the desired final concentration, 10 μl of vehicle (total bound), or 10 μl of 1.85×10^-5 M cold PAF (non-specifically bound), […] The supernatants are then aspirated into the same scintillation vials as before and 10 ml, of Scintiverse II (a liquid scintillation cocktail) is added to and mixed therewith. The pellets are resuspended in 500 μl of Scintiverse II and mixed well. […] The amount of specific binding is calculated as the difference in cpm between the total bound [^3 H]-PAF and non-specifically bound [^3 H]-PAF. The percent inhibition of specific binding is determined by dividing the cpm specifically bound in the presence of the test compound by the cpm specifically bound in total, multiplying by 100 and then subtracting from 100. An IC50 (50% inhibitory concentration) value is generated by evaluating the test compound over the full concentration range.

[3] = test system: PAF-mediated broncho-constriction; assay: PAF-induced Pulmonary Inflation Pressure (PIP) Increase test (Test B); type: in vivo, guinea pig; conditions: Cavia porcellus, iv, i.a., guinea pigs, PAF 100 ng/kg i.v., maximal PIP
Description: Male guinea pigs, weighing between 300 and 400 gm, are anesthetized, after which time trachea tube, carotid and jugular catheters are inserted. The test animal is then force ventilated employing a small animal Harvard respirator and the resistance to lung inflation (PIP) is measured utilizing a pressure transducer and recorder. The test compound is administered orally at 30 minutes prior to, intravenously (jugular) at 5 minutes prior to, or intraarterially at 1 to 5 minutes prior to the introduction of PAF. The PAF (C18 -Sandoz, Hanover) is dissolved in Tris-Tyrode's bovine serum albumin buffer and administered intravenously (jugular) at 100 ng/kg. Any blood pressure measurements taken are recorded from a transducer attached to the carotid catheter. Two responses are noted in the PIP recordings after the PAF is administered: (1) an immediate response which, in PAF-only treated test animals, averages out to between 70% and 80% more than the baseline PIP values. (This early response is also the greatest response and is, therefore, termed mazimal PIP); and (2) the long term (at least 30 minutes) PIP response which slowly decreases to baseline. A reading at 15 minutes after the administration of PAF is termed the endpoint PIP.

PAF-induced hypotension = PAF-induced hypotension test (Test D); type: in vivo, Wistar rat; conditions: for ED50: Rattus norvegicus, iv, Test D, Wistar rats, PAF-induced blood pressure decrease; for decrease in blood pressure: within 10 sec.
Description: Male Wistar rats, weighing approximately 300 gm, are anesthetized and their carotid arteries cannulated to enable their diastolic and systolic arterial blood pressure measurements to be recorded. PAF is then administered intravenously at either 100 or 500 ng/kg, and the blood pressure drop (within 10 sec.) and recovery time required to reach the pre-injection blood pressure level are measured. […] In order to measure the effectiveness of a compound for both the inhibition of blood pressure decreases and shortening of the recovery time, the test compound is administered intravenously over a range of between 5 and 7 dosage levels (1 or 2 test animals per dose) and between 1 and 5 minutes prior to the introduction of PAF to generate an ED50.

[4] = test system: PAF-mediated extravasation; assay: PAF-induced Extravasation test (Test C), hemoconcentration; type: in vivo, guinea pig; conditions: Cavia porcellus, iv, i.a., guinea pigs, PAF 100 ng/kg i.v., increase in hematocrit
Description: (§1) Male guinea pigs, weighing between 300 and 400 gm, are anesthetized, after which time a femoral catheter is inserted. The test compound is administered intraarterially at one to five minutes prior to the introduction of PAF. The PAF (C18 -Sandoz, Hanover) is dissolved in Tris-Tyrode's bovine serum albumin buffer and administered intravenously (jugular) at 100 ng/kg.
(§2) To determine the hematocrit value, which is employed to index hemoconcentration and is defined as the percent of packed red blood cells in a sample of blood which is centrifuged to separate plasma from the cellular components, blood samples are collected in 50 μl heparinized hematocrit tubes. These samples are taken just prior to the injection of PAF, one minute subsequent to the injection of PAF and every two minutes thereafter until 15 minutes has lapsed subsequent to the injection of PAF. The tubes are then centrifuged and the percent of packed red blood cells (hematocrit) is measured (PAF induces a maximal increase in hematocrit at 5 to 7 minutes subsequent to the injection of PAF). The percent increase in hematocrit over the value prior to the injection of PAF is calculated. The hematocrit values obtained with the test compound are compared to the hemoconcentration values obtained with PAF alone and are expressed as percent inhibition of percent increase in hematocrit. From the values obtained, an ED50 is generated.

[5] = test system: PAF-induced hemoconcentration; assay: Decrease in inhibition of hemoconcentration over time (Test J); type: in vivo, guinea pig; conditions: i.v., x times the ED50, time still inhibiting 50%
Description: as §1, §2
Similarly, a decrease in inhibition of hemoconcentration over time (Test J) can be measured by a modification of Test C described above wherein an amount of the test compound which is x times the ED50 for the compound is intravenously administered to the test animals. By observing the time at which the test compound still inhibits 50% of the hemoconcentration caused by the PAF challenge, the rate of loss of the test compound can be determined employing the above equation.

[6] = test system: PAF-induced bronchoconstriction; assay: Decrease in inhibition of bronchoconstriction over time (Test I); type: in vivo, guinea pig; conditions: i.v., x times the ED50, time still inhibiting 50%
Description: Male guinea pigs, weighing between 300 and 400 gm, are anesthetized, after which time trachea tube, carotid and jugular catheters are inserted. The test animal is then force ventilated employing a small animal Harvard respirator and the resistance to lung inflation (PIP) is measured utilizing a pressure transducer and recorder. The test compound is administered orally at 30 minutes prior to, intravenously (jugular) at 5 minutes prior to, or intraarterially at 1 to 5 minutes prior to the introduction of PAF. The PAF (C18 -Sandoz, Hanover) is dissolved in Tris-Tyrode's bovine serum albumin buffer and administered intravenously (jugular) at 100 ng/kg. Any blood pressure measurements taken are recorded from a transducer attached to the carotid catheter. […] (This early response is also the greatest response and is, therefore, termed mazimal PIP); and (2) the long term (at least 30 minutes) PIP response which slowly decreases to baseline. A reading at 15 minutes after the administration of PAF is termed the endpoint PIP.
Thus, a decrease in inhibition of bronchoconstriction over time (Test I) can be measured by a modification of Test B described above wherein an amount of the test compound which is x times the ED50 for the compound is intravenously administered to the test animals. By observing the time at which the test compound still inhibits 50% of the bronchoconstriction caused by the PAF challenge, the rate of loss of the test compound can be determined employing the following equation: [formula]

Compound | IC50 [1] [nM] | IC50 [2] [nM] | ED50 [3] [µg/kg] | ED50 (PAF-induced hypotension) [µg/kg] | ED50 [4] [µg/kg] | Rate of loss [5] [µg/kg/min] | Rate of loss [6] [µg/kg/min] | decrease in blood pressure (PAF-induced hypotension; PAF 100 ng/kg i.v.) [%] | recovery time to pre-injection blood pressure level (PAF-induced hypotension; PAF 500 ng/kg i.v.) [min] | decrease in blood pressure (PAF-induced hypotension; PAF 500 ng/kg i.v.) [%]
CCCCCCCCCCCCCCCCCCNC(=O)OC[C@@]1(C)CC[C@@](C)(COC(=O)NCc2cc(C)cc(C)[n+]2C)O1 (relative stereo) [Example 11, Cis-2-[[[tetrahydro-2,5-dimethyl-5-[[[[(octadecyl)amino]carbonyl]oxy]methyl]furan-2-yl]methoxycarbonyl]aminomethyl]-1,4,6-trimethylpyridinium chloride] | 2200 | 450 |  |  |  |  |  |  |  | 
CCCCCCCCCCCCCCCCCCNC(=O)OCC1(COC(=O)N(Cc2cccc[n+]2CC)C(=O)c2ccccc2)CCCO1 (stereo not shown) [Example 7, 2-[Benzoyl[[tetrahydro-2-[[[[(octadecyl)amino]carbonyl]oxy]methyl]furan-2-yl]-methoxycarbonyl]aminomethyl]-1-ethylpyridinium chloride] | 840 | 16 |  |  |  |  |  |  |  | 
CCCCCCCCCCCCCCCCCCNC(=O)OC[C@@]1(C)CC[C@@](C)(COC(=O)N(C)Cc2cccc[n+]2C)O1 (relative stereo) [Example 12, Cis-2-[methyl[[tetrahydro-2,5-dimethyl-5-[[[[(octadecyl)amino]carbonyl]oxy]methyl]furan-2-yl]methoxycarbonyl]aminomethyl]-1-methylpyridinium chloride] | 2000 | 2200 |  |  |  |  |  |  |  | 
CCCCCCCCCCCCCCCCCCN(C(C)=O)C(=O)OCC1(COC(=O)N(Cc2cccc[n+]2CC)C(C)=O)CCCO1 (stereo not shown) [Example 5, 2-[Acetyl[[tetrahydro-2-[[[[[acetyl(octadecyl)amino]carbonyl]oxy]methyl]furan-2-yl]methoxycarbonyl]aminomethyl]-1-ethylpyridinium chloride] | 48 | 2 | 4 | 4.5 | 4 |  |  |  |  | 
CCCCCCCCCCCCCCCCCCNC(=O)OC[C@@]1(C)CC[C@@](C)(COC(=O)NCc2cccc[n+]2CC)O1 (relative stereo) [Example 10, Cis-2-[[[tetrahydro-5-[[[[(octadecyl)amino]carbonyl]oxy]methyl]-2,5-dimethyl-furan-2-yl]methoxycarbonyl]aminomethyl]-1-ethylpyridinium chloride] | 550 | 560 | 150 |  | 60 | 10.21 | 30.0 |  |  | 
1-O-alkyl-2-acetyl-sn-glyceryl-3-phosphoryl-choline [PAF, reference compound] |  |  |  |  |  |  |  | 30 | 10 | 52
CCCCCCCCCCCCCCCCCCNC(=O)OC[C@@]1(C)CC[C@@](C)(COC(=O)N(Cc2cccc[n+]2CC)C(C)=O)O1 (relative stereo) [Example 9, Cis-2-[acetyl[[tetrahydro-2,5-dimethyl-5-[[[[(octadecyl)amino]carbonyl]oxy]methyl]furan-2-yl]methoxycarbonyl]aminomethyl]-1-ethylpyridinium chloride] | 350 | 60 | 20 |  | 15 | 0.92 | 0.88 |  |  | 
CCCCCCCCCCCCCCCCCCNC(=O)OCC1(COC(=O)NCc2cccc[n+]2CC)CCCO1 (stereo not shown) [Example 2, 2-[[[Tetrahydro-2-[[[[(octadecyl)amino]carbonyl]oxy]methyl]furan-2-yl]methoxycarbonyl]aminomethyl]-1-ethylpyridinium chloride] | 16000 | 800 |  |  |  |  |  |  |  | 
CCCCCCCCCCCCCCCCCCOCC1(COC(=O)N(Cc2cccc[n+]2CC)C(C)=O)CCCO1 (stereo not shown) [Example 8, 2-[Acetyl[[tetrahydro-2-[(octadecyloxy)methyl]furan-2-yl]methoxycarbonyl]aminomethyl]-1-ethylpyridinium chloride] | 860 | 14 |  |  |  |  |  |  |  | 
CCCCCCCCCCCCCCCCCCNC(=O)OCC1(COC(=O)N(Cc2cccc[n+]2CC)C(C)=O)CCCO1 (stereo not shown) [Example 1, 2-[Acetyl[[tetrahydro-2-[[[[(octadecyl)-amino]carbonyl]oxy]methyl]furan-2-yl]-methoxycarbonyl]aminomethyl]-1-ethylpyridinium chloride] | 40 | 10 | 2.5 | 3 | 2.8 | 0.35 | 0.3 |  |  | 
CCCCCCCCCCCCCCCCCCNC(=O)OCC1(COC(=O)N(Cc2cccc[n+]2CC)C(=O)C(C)(C)C)CCCO1 (stereo not shown) [Example 6, 2-[Trimethylacetyl[[tetrahydro-2-[[[[(octadecyl)amino]carbonyl]oxy]methyl]furan-2-yl]methoxycarbonyl]aminomethyl]-1-ethylpyridinium chloride] | 500 | 85 |  |  |  |  |  |  |  | 
CCCCCCCCCCCCCCCCCCNC(=O)OCC1(COC(=O)N(CCCCCc2cccc[n+]2CC)C(C)=O)CCCO1.[Cl-] (stereo not shown) [Example 4, 2-[5-[Acetyl[[tetrahydro-2-[[[[(octadecyl)-amino]carbonyl]oxy]methyl]furan-2-yl]methoxycarbonyl]amino]pentyl]-1-ethylpyridinium chloride] | 130 | 8 | 15 |  | 17 | 1.10 | 0.35 |  |  | 
CCCCCCCCCCCCCCCCCCNC(=O)OCC1(COC(=O)NCCCCCc2cccc[n+]2CC)CCCO1.[Cl-] (stereo not shown) [Example 3, 2-[5-[[[Tetrahydro-2-[[[[(octadecyl)-amino]carbonyl]oxy]methyl]furan-2-yl]methoxycarbonyl]amino]pentyl]-1-ethylpyridinium chloride] | 300 | 20 | 5 | 27 | 8.5 | 0.65 | 0.66 |  |  | 
